Measured values: patent US4495186A, “Organometal complexes of N-cyclohexyl-piperazino acetamides or propionamides, preparation and use thereof as antiulcer-antisecretive-buffering drugs” (Camillo Corvi S.p.A., priority 1982, dated 1985)

How the values were obtained:
[1] = tested on: mouse; assay: acute toxicity per os, mouse; format: in vivo; settings: fiduciary limits (6646.4-5862.2)
Source text: (§1) The acute toxicity of the complex salt of dihydroxy-aluminum-gluconate of N-cyclohexyl-piperazino acetamide is checked by the usual pharmacotoxicologic testing on the rat and mouse per os, the results of which are given in the following table.

[2] = tested on: Duodenal from cystamine experimental ulcer; assay: antiulcer activity, duodenal ulcer from cystamine; format: in vivo; settings: rat, i.d.
Source text: (§2) The antiulcer activity has been tested on the rat for different types of experimental ulcer. The obtained therefrom is in Table 2.

[3] = buffering effect, HCl titration in vitro; format: physicochemical; settings: 4.6 g sample in 400 ml 0.015 N HCl, 37° C., 0.1 N HCl at 1 ml/minute; minimum requirement
Experimental: Buffering effect: to 4.6 g of the sample, in a 1000 ml beaker, 400 ml of 0.015 N HCl are added, while keeping the temperature at 37° C. (thermostat). The pH is measured after 30 minutes, while controlling that it be maintained within 4.8.div.5.0. Then, by means of a burette, 0.1 N HCl is introduced at a rate of 1 ml/minute, to achieve a pH of 3.0. 165 ml of 0.1N HCl must be consumed at the very least.

[4] = antisecretive activity; format: in vivo; settings: rat, os
[5] = tested on: Fast experimental ulcer; assay: antiulcer activity, fast ulcer; format: in vivo; settings: rat, os
Source text: as §2

[6] = tested on: Shay experimental ulcer; assay: antiulcer activity, Shay ulcer; format: in vivo; settings: rat, i.d.
Source text: as §2

[7] = tested on: Phenylbutazone + hystamine experimental ulcer; assay: antiulcer activity, phenylbutazone + hystamine ulcer; format: in vivo; settings: rat, os
Source text: as §2

[8] = tested on: From indomethacin experimental ulcer; assay: antiulcer activity, ulcer from indomethacin; format: in vivo; settings: rat, os
Source text: as §2

[9] = tested on: gastric hyperacidity; assay: buffering activity (neutralizing action for gastric hyperacidity); format: in vivo; settings: rat, os
[10] = tested on: Immobilization experimental ulcer; assay: antiulcer activity, immobilization ulcer; format: in vivo; settings: rat, os
Source text: as §2

[11] = tested on: Reserpine experimental ulcer; assay: antiulcer activity, reserpine ulcer; format: in vivo; settings: rat, os
Source text: as §2

[12] = tested on: rat; assay: acute toxicity per os, rat; format: in vivo
Source text: as §1

[13] = from U.S. Pat. No. 4,123,530; cited from earlier work

Molecule: Dihydroxy-aluminate-gluconate of N- cyclohexyl-1-piperazino-acetamide
- LD50 [1]: 6241.9 mg/kg
- ED50 (antiulcer) [2]: 270 mg/kg
- 0.1N HCl consumed to achieve a pH of 3.0 [3]: ≥ 165 ml
- ED50 (antisecretive activity) [4]: 330 mg/kg
- ED50 (antiulcer) [5]: 350 mg/kg
- ED50 (antiulcer) [6]: 360 mg/kg
- ED50 (antiulcer) [7]: 150 mg/kg
- ED50 (antiulcer) [8]: 420 mg/kg
- ED50 (buffering activity) [9]: 156 mg/kg
- ED50 (antiulcer) [10]: 420 mg/kg
- ED50 (antiulcer) [11]: 480 mg/kg
- toxicity ([12]; rat and mouse per os, overall statement): very low
- LD50 ([12]; rat, os, fiduciary limits (8447.4-5264.6)): 6668.4 mg/kg

Molecule: CC1CCC(NC(=O)CN2CCNCC2)CC1 (stereo not drawn) [N-4-methyl-cyclohexyl-1-piperazinylacetamide]
- antisecretive and antiulcer activity [13]: considerable

Molecule: O=C(CN1CCNCC1)NC1CCCCC1 [N-cyclohexyl-1-piperaziniylacetamide]
- antisecretive and antiulcer activity [13]: considerable
